The numbers were not newly measured in article PMC6151732, “A New Noncanonical Anionic Peptide That Translocates a Cellular Blood–Brain Barrier Model” (Molecules : A Journal of Synthetic Chemistry and Natural …, 2017), which cites them from elsewhere.

For the data set, the system named is brain. The protocol: Dengue virus type-2 capsid (DEN2C) protein-derived membrane-active peptides have been thoroughly studied by our group. […] An additional study was performed using the four α-helical domains of the DEN2C protein (α1, α2, α3 and α4) to identify trans-BBB peptides. […] PepH3, a hydrophobic peptide, is able to transcytose across the cell, while other peptides accumulate inside the endothelial membrane ...

Consider AGILKRW [PepH3], for which the Brain uptake result is recorded as “high brain uptake”.
